We go through twelve molecules from article PMC5155426, “Organic Redox Species in Aqueous Flow Batteries: Redox Potentials, Chemical Stability and Solubility” (Scientific Reports, 2016).

Each structure is given as a SMILES string. Values after ≈ are worked out from the molar mass of the structure shown. Values joined by “and” are separate entries in the source; they are usually repeats but may differ in a detail not shown here. Equal values may be shown once. “Also recorded” adds a separate entry of the source.

Series [1] is described as follows: Aqueous solubility estimation (OECD test #105) in 1 M supporting electrolytes. The note with it: for solubility compared with AQDS(2,7) and AQS(2): sulfonated AQs. The procedure:
After each addition the test tube was ultrasonicated and/or shaken vigorously using a Vortex Generator for at least 10 minutes at room temperature. Then the tube was inspected visually for undissolved sample and the addition of supporting electrolyte solution continued until the sample seemed just dissolved. The volumes just before and after full dissolution are used for calculating the solubility interval (Supplementary, S4 and S5) and the solubility is estimated as the average between the two.

Series [2] can be described thus: Visual inspection of dissolved samples on standing (thixotropy, phase separation). It is filed as physicochemical. The procedure:
Dissolved samples were left to stand for 12 hours and visually inspected for thixotropy using a vortex generator. For very insoluble compounds the amount of sample was decreased to 0.01 g and the dissolution time increased up to 24 h.
In practical RFBs thixotropy is not wanted, as the redox solutions can be kept still for long times. […] Thixotropy of AQ dyes in aqueous dispersions has been described earlier, as well as some methods to overcome the problem such as addition of polyvinylpyrrolidone to the solution[43].

Series [3] in a line: Cyclic voltammetry: formal redox potential, peak current ratio, electrochemical reversibility. The note with it: for change of E0' from acidic (pH 0) to alkaline (pH 13): 13 pH units; for pH dependence (slope) of E0': pH 0 to pH 13. The series is classed as physicochemical. As for the experimental part: The investigated compounds were used as-purchased and without any purification. […] For each series of CVs, a freshly polished electrode was used. The CVs for soluble compounds in 1 mM concentration were recorded in a glass beaker with a customized lid in nitrogen purged solutions of three different pHs, namely pH 0 (1 M H2SO4), pH 7 (0.5 M phosphate buffer) and pH 13 (1 M NaOH). The pH of the NaOH solution is taken as 13 to account for carbonization of the solution with exposure to air. A background CV was recorded before each CV experiment to exclude background contaminations. The CVs of insoluble compounds in 1 M H2SO4, or 0.5 M phosphate buffer were recorded as follows: 6 mL of the supporting electrolyte was mixed with approximately 4 mL of acetone, and then a small amount of the quinone was added so that its concentration was around 1 mM.
Each CV was analyzed in terms of peak potentials and peak currents. Peak currents were determined by subtracting a polynomial fit of the background from the recorded current as exemplified in Supplementary, S1. A plot of the absolute values of the peak currents to the square root of the scan rate was constructed and, when reasonable, a linear fit included to evaluate the electrochemical (Nernstian) reversibility of the electrochemical reaction. The peak current Ip for reversible reactions are given by equation (1).
Where F is the Faraday constant, R the gas constant, T the temperature, n the number of electron transferred, A the area of the electrode, DOthe diffusion coefficient and CO^*the bulk concentration of the analyte and v the scan rate. The peak current ratio is expected to be close to one for reversible species. The formal redox potential (E^0’), which is the adjusted form of the standard redox potential, where effects of the medium is taken into account, is reported here as the midpoint potential between the two peak potentials in the CV[24]. All half-cell potentials in this work refer to the normal hydrogen electrode (VNHE).

Where [4] appears, read: 1 M H2SO4 supporting electrolyte prepared from MilliQ water, aqueous buffer, thermodynamic from solid, Solubility, 1 M H2SO4, room temperature, interval just after / before full dissolution.
The mark [5] stands for this setting: 1 M KCl supporting electrolyte prepared from MilliQ water, saline or isotonic, thermodynamic from solid, Solubility, 1 M KCl, room temperature.
Setting [6] is: pH 0 (1 M H2SO4), midpoint of CV peak potentials, about 1 mM, acetone added for insoluble compounds.
[7] abbreviates: pH 7 (0.5 M phosphate buffer), midpoint of CV peak potentials.
[8] abbreviates: pH 13 (1 M NaOH), midpoint of CV peak potentials.
The mark [9] stands for this setting: 1 M KOH supporting electrolyte prepared from MilliQ water, aqueous buffer, thermodynamic from solid, Solubility, 1 M KOH, room temperature.

Consider `O=C1c2ccccc2C(=O)c2c1ccc(O)c2O` [AQDH(1,2), 1,2-dihydroxy-9,10-anthraquinone], for which the solubility in series [1] (setting [4]) and in series [1] (setting [5]) was less than 10 mM each time. Further, in series [2] (in KOH (1 M)), the “Comment: behaviour of the solution upon standing” value (“Comment: behaviour” for short) was “T hixotropic; also recorded: thixotropy was observed”. Moreover, the Peak current ratio is 0.73(7) in series [3] (pH 0), 0.5(1) in series [3] (pH 7) and 1.2(1) in series [3] (pH 13). Besides, the “formal redox potential E0'” value in series [3] (setting [6]) was 0.005(4) VNHE. Also, in series [3] (pH 13), the Electrochemical reversibility entry was “Quasireversible”.
Turning to `O=C1c2ccccc2C(=O)c2c(O)ccc(O)c21` [AQDH(1,4), 1,4-dihydroxy-9,10-anthraquinone], the solubility in series [1] (setting [4]) and in series [1] (setting [5]) was less than 10 mM throughout. Besides, the “Comment: behaviour” value in series [2] (in KOH (1 M)) is listed as “T hixotropic; also recorded: thixotropy was observed”. Also, the Peak current ratio in series [3] (pH 0) was 0.6(1); in series [3] (pH 7), 0.4(2); in series [3] (pH 13), 1.05(3). In addition, the Electrochemical reversibility entry in series [3] (pH 13) is “Reversible”.
On to `O=C1c2cccc(O)c2C(=O)c2c(O)cc(CO)cc21` [AQDH(1,8)MH, 1,8-dihydroxy-3-(hydroxymethyl)-9,10-anthraquinone], for which the solubility in series [1] (setting [4]) and in series [1] (setting [5]) was less than 10 mM throughout. The “Comment: behaviour” value in series [2] (in KOH (1 M)) is on record as “thixotropy was observed”; in series [2] (in KOH (1 M), listed as AQDG(1,8)MH) it was “T hixotropic behavior”. Besides, the Peak current ratio in series [3] (pH 0) was 0.58(4); in series [3] (pH 7) it was 0.51(4); in series [3] (pH 13) it was 1.03(1). The Electrochemical reversibility result in series [3] (pH 13) is on record as “Reversible”.
Regarding `O=C(O)c1cc(O)c2c(c1)C(=O)c1cccc(O)c1C2=O` [AQDH(4,5)CA, 4,5-dihydroxy-9,10-anthraquinone-2-carboxylic acid], the solubility in series [1] (setting [4]) and in series [1] (setting [5]) was less than 10 mM throughout. Moreover, the “Comment: behaviour” value is listed as “thixotropy was observed” in series [2] (in KOH (1 M)) and “T hixotr opic behavior” in series [2] (in KOH (1 M), listed as AQDH(4,5)C A). Moreover, the Peak current ratio in series [3] (pH 0) is 0.39(6); in series [3] (pH 7), 0.69(8); in series [3] (pH 13), 1.23(7). Further, the “formal redox potential E0'” value is 0.041(9) VNHE in series [3] (setting [6]); -0.267(1) VNHE in series [3] (setting [7]); “around −0.53 VNHE” in series [3] (setting [8]); -0.546(2) VNHE in series [3] (pH 13 (1 M NaOH), midpoint of CV peak potentials, listed as AQDH(4,5)C A). The figures for the Electrochemical reversibility entry in series [3] (pH 7) and in series [3] (pH 13) were “Quasireversible” and “Reversible”, respectively.
`O=C1c2cccc(S(=O)(=O)[O-])c2C(=O)c2cccc(S(=O)(=O)[O-])c21.[Na+].[Na+]` [AQDS(1,5), 9,10-anthraquinone-1,5-disulfonate disodium]: in series [1] (setting [9]), the solubility (in general, how much of the substance goes into solution per volume) was less than 10 mM. For the same molecule, in series [1], the “solubility compared with AQDS(2,7) and AQS(2)” value is “more than ten times lower solubility”. The “Comment: behaviour” value in series [2] (electrolyte not stated) is recorded as “Phase separation”. Also, the results for the Electrochemical reversibility result in series [3] (pH 0), in series [3] (pH 7) and in series [3] (pH 13) were “Quasireversible”, “Quasireversible” and “Reversible”, respectively. Also, the values for the Peak current ratio in series [3] (pH 0), in series [3] (pH 7) and in series [3] (pH 13) were 1.7(1), 0.49(3) and 1.17(4), respectively. In series [3] (setting [6]), the “formal redox potential E0'” value is −0.03 VNHE.
Consider `O=C1c2cccc(S(=O)(=O)[O-])c2C(=O)c2c1cccc2S(=O)(=O)[O-].[K+].[K+]` [AQDS(1,8), 9,10-anthraquinone-1,8-disulfonate dipotassium], for which the “solubility compared with AQDS(2,7) and AQS(2)” value in series [1] is recorded as “more than ten times lower solubility”. Besides, the “Comment: behaviour” value in series [2] (electrolyte not stated) is “Phase separation”. For the same molecule, the Electrochemical reversibility entry was “Quasireversible” in series [3] (pH 0), “Quasireversible” in series [3] (pH 7) and “Reversible” in series [3] (pH 13). For the same molecule, the Peak current ratio in series [3] (pH 0) is 1.04(7); in series [3] (pH 7) it was 0.4(1); in series [3] (pH 13), 1.0(3). Further, the entries for the “formal redox potential E0'” value in series [3] (setting [6]), in series [3] (pH 0 (1 M H2SO4); midpoint of CV peak potentials; about 1 mM; acetone added for insoluble compounds; 8)) and in series [3] (setting [8]) were 0.03 VNHE, 0.027(4) VNHE and -0.464(4) VNHE, respectively.
With `O=C1c2ccccc2C(=O)c2cc(S(=O)(=O)O)ccc21` [AQS(2), 9,10-anthraquinone-2-sulfonate sodium], the “Comment: behaviour” value in series [2] (electrolyte not stated) is “Phase separation”. Further, the Peak current ratio in series [3] (pH 0) is listed as 1.0(1); in series [3] (pH 7), 0.88(1); in series [3] (pH 13), 1.2(2). Besides, the “formal redox potential E0'” value in series [3] (setting [6]) is 0.163(3) VNHE and 0.163 VNHE; in series [3] (setting [8]) it was -0.334(3) VNHE. In series [3] (pH not specified), the Electrochemical reversibility result is reported as “Reversible”.
With `O=C1C=C(O)C(=O)c2ccccc21` [NQ(1,4)H, 2-hydroxy-1,4-naphtoquinone], the solubility is less than 10 mM in series [1] (setting [4]), less than 10 mM in series [1] (setting [5]) and 820 mM (≈ 143000 µg/mL) in series [1] (setting [9]). Also, the “change of E0' from acidic (pH 0) to alkaline (pH 13)” value in series [3] came to 0.8 V. Further, the Peak current ratio in series [3] (pH 0) is listed as 0.81(8); in series [3] (pH 7) it was 1.2(3); in series [3] (pH 13), 0.73(6). In addition, the “formal redox potential E0'” value in series [3] (setting [6]) is 0.308(4) VNHE. For the same molecule, the “pH dependence (slope) of E0'” value in series [3] is given as 67 mV/pH unit. In addition, the values for the Electrochemical reversibility entry in series [3] (pH 13) and in series [3] (pH not specified) were “seemingly reversible” and “Quasireversible”, respectively.
On to `CC(C)=CCC1=C(O)C(=O)c2ccccc2C1=O` [NQ(1,4)HB, 2-hydroxy-3-(3-methyl-2-butenyl)-1,4-naphthoquinone], for which the values for the solubility in series [1] (setting [4]), in series [1] (setting [5]) and in series [1] (setting [9]) were less than 10 mM, less than 10 mM and 700 mM (≈ 170000 µg/mL), respectively. The “change of E0' from acidic (pH 0) to alkaline (pH 13)” value in series [3] was found to be 0.8 V. Moreover, the Electrochemical reversibility result in series [3] (pH 0) is on record as “Quasireversible”; in series [3] (pH 7) it was “Reversible”; in series [3] (pH 13), “Quasireversible”. The “formal redox potential E0'” value in series [3] (setting [6]) is reported as 0.333(3) VNHE. Besides, in series [3], the “pH dependence (slope) of E0'” value came out at 67 mV/pH unit. In addition, the figures for the Peak current ratio in series [3] (pH 7) and in series [3] (pH 13) were 1.08(5) and 0.38(4), respectively.
Consider `c1ccc2nc3ccccc3nc2c1` [Phenazine], for which the solubility was less than 10 mM in series [1]; 10 mM (≈ 1800 µg/mL) in series [1] (aqueous buffer, thermodynamic from solid, Solubility); less than 10 mM in series [1] (saline or isotonic, thermodynamic from solid, Solubility). For the same molecule, the “formal redox potential E0'” value in series [3] (setting [6]) is 0.403(3) VNHE; in series [3] (setting [7]) it was “Unstable”; in series [3] (setting [8]), “Unstable”.
On to `c1cnccn1` [Pyrazine, 1,4-diazine], for which the solubility in series [1] (setting [4]), in series [1] (setting [5]) and in series [1] (setting [9]) was roughly 7000 mM (≈ 561000 µg/mL) throughout. The “formal redox potential E0'” value was -0.013(2) VNHE in series [3] (setting [6]), “Unstable” in series [3] (setting [7]) and “Unstable” in series [3] (setting [8]).
In the case of `O=C(O)c1cnccn1` [Pyrazine-2-carboxylic acid], the solubility is 70 mM (≈ 8690 µg/mL) in series [1] (setting [4]), 80 mM (≈ 9930 µg/mL) in series [1] (setting [5]) and 900 mM (≈ 112000 µg/mL) in series [1] (setting [9]). The “formal redox potential E0'” value in series [3] (setting [6]) is recorded as -0.013(3) VNHE; in series [3] (setting [7]) it was “Unstable”; in series [3] (setting [8]), “Unstable”.
